Results: the OPERA property sets (Mansouri et al. 2018)

settings: not given

| Structure (SMILES) | boiling point | melting point | ready biodegradability | log10 vapour pressure (mmHg) | log10 Koc (L/kg) | log10 Henry constant (atm·m³/mol) | log10 Koa | log10 biodegradation half-life (days) |
| --- | --- | --- | --- | --- | --- | --- | --- | --- |
| C#CCCCCCCCCCC | 215 °C | -19 °C | – | – | – | – | – | – |
| CCOC(CN)OCC | 163 °C | -78 °C | – | – | – | – | – | – |
| CCCCOc1ccc(C(=O)O)cc1 | – | 148 °C | – | – | – | – | – | – |
| CC[Si](F)(F)CC | 61 °C | -78.7 °C | – | – | – | – | – | – |
| CCCCC(CC)COC(=O)C=CC(=O)OCC(CC)CCCC (configuration not stated) | – | – | readily biodegradable | – | – | – | – | – |
| OC[C@H]1O[C@@](CO)(O[C@H]2O[C@H](CO)[C@@H](O)[C@H](O)[C@H]2O)[C@@H](O[C@H]2O[C@H](CO)[C@@H](O)[C@H](O)[C@H]2O)[C@@H]1O | – | 153 °C | – | – | – | – | – | – |
| C[Si]1(C)O[Si](C)(C)O[Si](C)(C)O[Si](C)(C)O[Si](C)(C)O[Si](C)(C)O[Si](C)(C)O1 | – | -26 °C | – | -1.95 | – | – | – | – |
| Nc1ccc(Cl)cc1[N+](=O)[O-] | – | 116 °C | not readily biodegradable | – | – | – | – | – |
| CCC(C(N)=O)c1ccccc1 (configuration not stated) | – | 86 °C | – | – | – | – | – | – |
| CCCc1cccc2ccccc12 | 274 °C | -8.6 °C | – | – | – | – | – | – |
| CC(C)[C@@H](C)/C=C/[C@@H](C)[C@H]1CC[C@H]2C3=CC=C4C[C@@H](O)CC[C@]4(C)[C@H]3CC[C@]12C | – | 127 °C | – | – | – | – | – | – |
| CCOc1cccc(C=O)c1O | 264 °C | 67 °C | – | – | – | – | – | – |
| C#CCC(C)C | 61.2 °C | -105 °C | – | – | – | – | – | – |
| O=Cc1ccccc1C=O | – | 56.5 °C | – | – | – | – | – | – |
| Cc1ccccc1C(=O)Nc1cccc(OC(C)C)c1 | – | 92.5 °C | – | -6.38 | – | – | – | – |
| CC(C)(O)C(F)(F)F | 81 °C | – | – | – | – | – | – | – |
| NC(=O)Nc1cccc2ccccc12 | – | 220 °C | – | – | – | – | – | – |
| O=CCCCC=O | – | – | – | -0.222 | – | – | – | – |
| O=C1CCC(=O)N1c1ccccc1 | 400 °C | 156 °C | – | – | – | – | – | – |
| CC1CCCC(C(C)C)C1 (configuration not stated) | 166 °C | – | – | – | – | – | – | – |
| Nc1ccc(I)cc1 | – | 67.5 °C | – | – | – | – | – | – |
| O=C1CCCCC1C1=CCCCC1 (configuration not stated) | 265 °C | -78 °C | not readily biodegradable | – | – | – | – | – |
| Cl/C=C/Cl | – | – | not readily biodegradable | – | – | – | – | – |
| CCCCCCCCCCCCCCCCOC(=O)CCCCCCCCCCCCC | – | – | readily biodegradable | – | – | – | – | – |
| CCNC(=O)NCC | 263 °C | 112 °C | – | – | – | – | – | – |
| N#Cc1cc(I)c(O)c(I)c1 | – | 212 °C | not readily biodegradable | – | – | – | – | – |
| NC1=C(Cl)C(=O)c2ccccc2C1=O | – | 199 °C | – | -6.35 | – | – | – | – |

| Structure (SMILES) | boiling point | melting point | ready biodegradability | log10 vapour pressure (mmHg) | log10 Koc (L/kg) | log10 Henry constant (atm·m³/mol) | log10 Koa | log10 biodegradation half-life (days) |
| --- | --- | --- | --- | --- | --- | --- | --- | --- |
| CCC1C(C)=NN=C(c2ccc(OC)c(OC)c2)c2cc(OC)c(OC)cc21 (configuration not stated) | – | 156 °C | – | – | – | – | – | – |
| CCSc1nc(NC(C)C)nc(NC(C)C)n1 | – | 105 °C | – | -5.8 | 3.07 | – | – | – |
| ClC(Cl)=C(Cl)C(Cl)=C(Cl)Cl | 215 °C | -21 °C | not readily biodegradable | -0.658 | – | -1.99 | – | – |
| CC(C)(C)C(=O)OCC(=O)[C@@]1(O)CC[C@H]2[C@@H]3CCC4=CC(=O)C=C[C@]4(C)[C@H]3[C@@H](O)C[C@@]21C | – | 233 °C | – | – | – | – | – | – |
| CC(Oc1ccc(Oc2ccc(Cl)cc2Cl)cc1)C(=O)O (configuration not stated) | – | 120 °C | – | – | – | – | – | – |
| C[Si]1(C)O[Si](C)(C)O[Si](C)(C)O[Si](C)(C)O[Si](C)(C)O[Si](C)(C)O1 | 245 °C | -3 °C | – | -1.65 | – | – | – | – |
| ClCCOCOCCCl | 218 °C | -32 °C | – | -0.879 | 1.79 | – | – | – |
| CC(C)OC(=O)[C@H](O)[C@@H](O)C(=O)OC(C)C | 275 °C | – | – | – | – | – | – | – |
| CCCCC(C)O (configuration not stated) | 136 °C | – | not readily biodegradable | 0.396 | – | – | – | – |
| CCC1(CC)COC(=O)NC1=O | – | 97.5 °C | – | – | – | – | – | – |
| CCOC(=O)c1sc(N)nc1C(F)(F)F | – | 186 °C | – | – | – | – | – | – |
| Cn1cnc2c1c(=O)[nH]c(=O)n2C | – | 357 °C | – | – | – | – | – | – |
| OCC(CO)(CCl)CCl | – | 83 °C | – | – | – | – | – | – |
| Clc1ccc(-c2cc(Cl)c(Cl)c(Cl)c2Cl)cc1 | – | 98 °C | – | – | – | – | – | – |
| FC1(F)C(F)(F)C(F)(F)C1(F)F | -5.9 °C | -40.1 °C | – | 3.37 | – | – | – | – |
| CC1CCC(C)(C)C1 (configuration not stated) | 105 °C | -142 °C | – | 1.05 | – | – | – | – |
| COc1ccc(C(C)=O)c(OC)c1OC | 296 °C | 15.8 °C | – | – | – | – | – | – |
| O=[N+]([O-])c1cccc(CBr)c1 | – | 59.3 °C | – | – | – | – | – | – |
| CCC(Br)Br | 134 °C | – | – | – | – | – | – | – |
| O=C(NCN1CCOCC1)c1cnccn1 | – | 118 °C | – | – | – | – | – | – |
| NCCOCCO | 221 °C | – | – | -2.81 | – | – | – | – |
| Clc1cc2c(Cl)cccc2c(Cl)c1Cl | – | 141 °C | – | -4.96 | – | – | 8.29 | – |
| CCOC(=O)C(F)Cl (configuration not stated) | 129 °C | – | – | – | – | – | – | – |
| CNc1cccc2ccccc12 | 294 °C | 174 °C | – | – | – | – | – | – |
| COc1ccccc1OC(C)=O | – | 31.5 °C | – | – | – | – | – | – |
| Cc1cc(C)oc(=O)c1 | 245 °C | 51.5 °C | – | – | – | – | – | – |
| CCCCCCCCCCCCN1CC(C(=O)O)CC1=O (configuration not stated) | – | 39 °C | – | – | – | – | – | – |

| Structure (SMILES) | boiling point | melting point | ready biodegradability | log10 vapour pressure (mmHg) | log10 Koc (L/kg) | log10 Henry constant (atm·m³/mol) | log10 Koa | log10 biodegradation half-life (days) |
| --- | --- | --- | --- | --- | --- | --- | --- | --- |
| CC=CC(C)C(C)C=CC (configuration not stated) | 154 °C | -64.8 °C | – | – | – | – | – | – |
| O=C(O)c1ccccc1C1c2ccc(O)cc2Oc2cc(O)ccc21 | – | 126 °C | – | – | – | – | – | – |
| CCOCCN(Cc1ccc(CN(CCOCC)C(=O)C(Cl)Cl)cc1)C(=O)C(Cl)Cl | – | 140 °C | – | – | – | – | – | – |
| Nc1ccc2c(O)cc(S(=O)(=O)O)cc2c1 | – | – | not readily biodegradable | – | – | – | – | – |
| CCc1cc(C)ccc1C | 187 °C | -53.7 °C | – | -0.0272 | – | – | – | 0.477 |
| O=C1C(O)=C(C2CCCCC2)C(=O)c2ccccc21 | – | 136 °C | – | – | – | – | – | – |
| CCOC(=O)CC(=O)CC | 191 °C | – | – | – | – | – | – | – |
| COc1ccc(CCNCC(O)COc2cccc(C)c2)cc1OC (configuration not stated) | – | 138 °C | – | – | – | – | – | – |
| O=[N+]([O-])c1c(F)cc(F)cc1F | 184 °C | 3.5 °C | – | – | – | – | – | – |
| NNc1ccc(Br)cc1 | – | 108 °C | – | – | – | – | – | – |
| OCCN(CCO)c1nc(N2CCCCC2)c2nc(N(CCO)CCO)nc(N3CCCCC3)c2n1 | – | 163 °C | – | – | – | – | – | – |
| c1cc2c3c(c1)CCCN3CCC2 | – | 40 °C | – | – | – | – | – | – |
| CCCCB(O)O | – | 95 °C | – | – | – | – | – | – |
| CC(C)(C)C(=O)NNCc1ccccc1 | – | 68.5 °C | – | – | – | – | – | – |
| CC(=O)Nc1ccc(O)cc1 | – | 170 °C | readily biodegradable | – | – | – | – | – |
| CC1=CCCC(=O)C1 | 201 °C | -21 °C | – | – | – | – | – | – |
| COc1ccsc1CN(C(=O)CCl)c1c(C)cccc1C | – | 73 °C | – | -6.68 | – | – | – | – |
| C=CCCCC | 63.4 °C | -140 °C | readily biodegradable | 2.26 | – | – | 2.41 | – |
| CC(C)(C)CBr | 106 °C | – | – | – | – | – | – | – |
| CCc1ccc(C)o1 | 118 °C | – | – | – | – | – | – | – |
| Cc1ccc(S(=O)(=O)Cl)cc1 | – | 71 °C | readily biodegradable | – | – | – | – | – |
| CCCc1ccc(O)cc1 | 233 °C | 22 °C | – | -1.43 | – | -5.94 | – | – |
| Nc1ccc(F)c([N+](=O)[O-])c1 | – | 97.5 °C | – | – | – | – | – | – |
| CO[C@H](C(=O)[C@@H](O)[C@@H](C)O)C1Cc2cc3cc(O[C@H]4C[C@@H](O[C@H]5C[C@@H](O)[C@H](O)[C@@H](C)O5)[C@@H](O)[C@@H](C)O4)c(C)c(O)c3c(O)c2C(=O)[C@H]1O[C@H]1C[C@@H](O[C@H]2C[C@@H](O[C@H]3C[C@](C)(O)[C@H](O)[C@@H](C)O3)[C@H](O)[C@@H](C)O2)[C@H](O)[C@@H](C)O1 (some centres not stated) | – | 182 °C | – | – | – | – | – | – |
| OCC(O)CO | 290 °C | 18.2 °C | readily biodegradable | -3.77 | – | -7.76 | – | – |
| CCc1cccc(C)c1 | 161 °C | -95.5 °C | – | 0.483 | – | – | – | 0.477 |

same assay, conditions: fish

| Structure (SMILES) | log10 biotransformation half-life (days) | log10 BCF |
| --- | --- | --- |
| C[Si]1(C)O[Si](C)(C)O[Si](C)(C)O[Si](C)(C)O[Si](C)(C)O[Si](C)(C)O[Si](C)(C)O1 | 1.48 | – |
| Nc1ccc(Cl)cc1[N+](=O)[O-] | -0.96 | 1.04 |
| O=C1CCCCC1C1=CCCCC1 (configuration not stated) | – | 0.7 |
| ClC(Cl)=C(Cl)C(Cl)=C(Cl)Cl | 2.07 | 3.82 |
| CCC(C)CCCC(C)CCCC(C)C (configuration not stated) | 1.36 | – |
| C[Si]1(C)O[Si](C)(C)O[Si](C)(C)O[Si](C)(C)O[Si](C)(C)O[Si](C)(C)O1 | 2.34 | – |
| Clc1ccc(-c2cc(Cl)c(Cl)c(Cl)c2Cl)cc1 | 2.36 | – |
| Nc1ccc2c(O)cc(S(=O)(=O)O)cc2c1 | – | 0.38 |
| Clc1ccccc1-c1c(Cl)ccc(Cl)c1Cl | 2.38 | – |
